Patent publication US9079880B2, “Rho kinase inhibitors” (Boehringer Ingelheim International GmbH, priority 2010, dated 2015)

Columns and labels:
ROCKII (1-543) [1] = molecular target: T1, ROCKII (1-543) (Homo sapiens (Human), UniProt O75116); assay: Luciferin-Luciferase Assay (PKLight ATP detection); type: biochemical; details: 750 nM ATP, 500 nM peptide, 7.5 nM kinase
Protocol: 1. Luciferin-Luciferase Assay
The activity of ROCKII (1-543) kinase was measured utilizing Cambrex PKLight ATP Detection Reagent, a homogeneous assay technology using luciferin-luciferase to quantify residual ATP. The assay was performed in 384-well low-volume, white, non-binding surface microtiter plates (Corning). The assay buffer was 25 mM HEPES, pH 7.5, 10 mM MgCl2, 50 mM KCl, 0.2% BSA, 0.01% CHAPS, 100 μM Na3VO4 and 0.5 mM DTT. Test compounds, dissolved in neat DMSO at 500 μg/mL, were serially diluted for dose response for a final starting concentration of 3 μg/mL in 1% DMSO of assay buffer. ROCKII (1-543) (62,408Da) was diluted in assay buffer to a final concentration of 7.5 nM in a total volume of 15 μL. Positive controls were reaction mixtures containing no test compound; negative controls (blanks) were reaction mixtures containing no kinase. After 15 minutes of pre-incubation of the test compounds with the kinase, a mixture of ATP and peptide substrate ([…]) in assay buffer was added to each well for a final concentration of 750 nM ATP and 500 nM peptide, respectively. After 90 minutes of incubation of the kinase reaction at 28° C. temperature, 10 μL of PKLight ATP Detection Reagent (warmed to room temperature previously) was added to each well. The assay plate was incubated at room temperature for additional 15 minutes and then read on an Analyst in luminescence mode. Dose-response experiments for each of the test compounds were conducted in quadruplet. IC50 values of test compounds represent 50% response of the positive control from the dose-response curve.
Target sequence in this assay (O75116 1-543): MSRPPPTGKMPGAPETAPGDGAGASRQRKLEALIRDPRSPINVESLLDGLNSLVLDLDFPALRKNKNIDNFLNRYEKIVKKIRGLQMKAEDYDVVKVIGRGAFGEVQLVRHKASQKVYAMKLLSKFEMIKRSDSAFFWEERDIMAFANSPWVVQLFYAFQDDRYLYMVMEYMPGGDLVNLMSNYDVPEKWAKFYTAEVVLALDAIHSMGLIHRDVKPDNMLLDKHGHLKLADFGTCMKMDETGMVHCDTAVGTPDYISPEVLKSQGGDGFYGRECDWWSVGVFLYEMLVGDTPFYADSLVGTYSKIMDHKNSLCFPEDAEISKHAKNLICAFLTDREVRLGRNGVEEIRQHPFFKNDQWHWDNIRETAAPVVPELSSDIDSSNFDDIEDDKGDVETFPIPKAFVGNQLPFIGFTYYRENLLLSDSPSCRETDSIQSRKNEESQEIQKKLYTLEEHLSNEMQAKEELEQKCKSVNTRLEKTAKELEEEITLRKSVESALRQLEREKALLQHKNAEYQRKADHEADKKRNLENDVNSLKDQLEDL

ROCKII (1-543) [2] = molecular target: T1, ROCKII (1-543); assay: IMAP Assay (fluorescence polarization, FAM S6 peptide); type: biochemical; details: 100 μM ATP, 200 nM FAM S6 peptide, 1 nM kinase; read-out: Assay 2 IC50
Protocol: This assay is performed using FAM S6 substrate peptide (Catalogue #R7184) and IMAP FP Screening Express Kit detection reagents from Molecular Devices (Sunnyvale, Calif.) in IMAP kinase reaction buffer (Tris-HCl, pH 7.2, 10 mM MgCl2, 0.05% NaN3, 0.1% phosphate-free BSA) containing 1 mM DTT. Test compounds dissolved in neat DMSO at 0.3 mg/mL are serially diluted 1 to 3 for concentration response in 100% DMSO. The DMSO serial dilutions are further diluted 33.33-fold in kinase reaction buffer, and 10 μL of this buffer dilution is transferred to Corning black 96-well half area NBS plates for a final top concentration of 3 μg/mL in 1% DMSO. 10 μL aliquot of 3 nM ROCKII (1-543) diluted in kinase reaction buffer is added to each assay well for a final concentration of 1 nM kinase. 10 μL of a mixture of 600 nM FAM S6 peptide and 300 μM ATP diluted in kinase reaction buffer is added to each well for a final concentration of 200 nM peptide and 100 μM ATP. The kinase reaction mixture is incubated for 60 minutes at room temperature. Positive controls are reaction mixtures containing no test compound and negative controls (blanks) are reaction mixtures containing no kinase. The kinase reaction is stopped by addition of 60 μL IMAP progressive binding reagent (Catalog #R7284) diluted 400-fold in 1× Binding buffer A. After 30 min of incubation at room temperature, the plates are read for fluorescence polarization on Analyst Plate Reader using Ex 485 nm, Em 530 nm, and FL 505 dichroic mirror. The mP signals are converted to percent of control (POC) values using the formula: POC=100*(Signal−BCTRL)÷(PCTRL−BCTRL)
Where Signal is the test well signal, BCTRL is the average of background (negative control) well signals on the plate and PCTRL is the average of positive control well signals on the plate. For the concentration-responsive compounds, POC as a function of test compound concentration is fitted to a 4-parameter logistic equation of the form: Y=A+(B−A)/[1+(x/C)D] Where A, B, C, and D are fitted parameters (parameter B is fixed at zero POC), and x and y are the independent and dependent variables, respectively. The IC50 is determined as the inflection point parameter, C.
Target sequence in this assay (O75116 1-543, species assumed): as the sequence (O75116 1-543) above

Row | SMILES | IC50 (ROCKII (1-543) [1]) [nM] | IC50 (ROCKII (1-543) [2]) [nM]
1 | CN(C)[C@H]1CCc2nc(NC(=O)c3cccc(OCC(=O)Nc4ccc(C#N)cc4)c3)sc2C1 [Compound 9] | 1.7 | 2.2
2 | N#Cc1ccc(NC(=O)COc2cccc(C(=O)Nc3nc4c(s3)C[C@@H](N)CC4)c2)cc1 [Compound 11, N—((S)-6-amino-4,5,6,7-tetrahydro-benzothiazol-2-yl)-3-[(4-cyano-phenylcarbamoyl)-methoxy]-benzamide] | 3.7 | 11
3 | N#Cc1ccc(NC(=O)COc2cccc(C(=O)Nc3nc4c(s3)C[C@@H](N3CCOCC3)CC4)c2)cc1 [Compound 13] | 3.4 | 8.5
4 | N#Cc1cccc(NC(=O)N2CCC[C@@H]2c2cccc(C(=O)Nc3ccc(CCN4CCOCC4)cc3)c2)c1 [Compound 16, (R)-2-{3-[4-(2-morpholin-4-yl-ethyl)-phenylcarbamoyl]-phenyl}-pyrrolidine-1-carboxylic acid (3-cyano-phenyl)-amide trifluoro acetic acid] | 5.8 | 23
5 | N#Cc1cccc(NC(=O)N2CCC[C@@H]2c2cccc(C(=O)Nc3ccc(CCN4CCCC4)cc3)c2)c1 [Compound 18] | 6 | 19
6 | N#Cc1cccc(NC(=O)N2CCC[C@@H]2c2cccc(C(=O)Nc3nc4c(s3)C[C@@H](N)CC4)c2)c1 [Compound 20, (R)-2-[3-((S)-6-Amino-4,5,6,7-tetrahydro-benzothiazol-2-ylcarbamoyl)-phenyl]-pyrrolidine-1-carboxylic acid (3-cyano-phenyl)-amide trifluoroacetic acid] | 1.7 | 0.39
7 | N#Cc1cccc(NC(=O)N2CCC[C@@H]2c2cccc(C(=O)Nc3nc4c(s3)C[C@H](N)CC4)c2)c1 [Compound 22] | 2.6 | 1
8 | CN1CCc2nc(NC(=O)c3cccc([C@H]4CCCN4C(=O)c4ccc(-c5ccncc5)cc4)c3)sc2C1 [Compound 26] | 1.7 | 5.8
9 | CCCN[C@H]1CCc2nc(NC(=O)c3cccc([C@H]4CCCN4C(=O)Nc4cccc(C#N)c4)c3)sc2C1 [Compound 29, (R)-2-[3-((S)-6-propylamino-4,5,6,7-tetrahydro-benzothiazol-2-ylcarbamoyl)-phenyl]-pyrrolidine-1-carboxylic acid (3-cyano-phenyl)-amide] | 1.6 | 0.8
10 | CCCN[C@H]1CCc2nc(NC(=O)c3cccc([C@@H](C)NC(=O)c4ccc(OC)c(OC)c4)c3)sc2C1 [Compound 31, 3,4-dimethoxy-N-{(R)-1-[3-((S)-6-propylamino-4,5,6,7-tetrahydro-benzothiazol-2-ylcarbamoyl)-phenyl]-ethyl}-benzamide] | 1 | 0.3
11 | CCCN[C@H]1CCc2nc(NC(=O)c3cccc([C@@H](C)NC(=O)c4ccc(OC)c(Cl)c4)c3)sc2C1 [Compound 33] | 1.2 | 0.5
12 | CCCN[C@H]1CCc2nc(NC(=O)c3cccc([C@@H](C)NC(=O)c4ccc(OC)c(C)c4)c3)sc2C1 [Compound 35] | 0.9 | 0.4
13 | CN1CCc2nc(NC(=O)c3cccc([C@H]4CCCN4C(=O)N4CCc5c(C#N)cccc54)c3)sc2C1 [Compound 42, 3-[(R)-1-(4-Cyano-2,3-dihydro-indole-1-carbonyl)-pyrrolidin-2-yl]-N-(5-methyl-4,5,6,7-tetrahydro-thiazolo[5,4-c]pyridin-2-yl)-benzamide trifluoroacetic acid] | 6.9 | 44.5
14 | CN(C)[C@H]1CCc2nc(NC(=O)c3cccc([C@H]4CCCN4C(=O)c4ccc5cc(O)ccc5c4)c3)sc2C1 [Compound 100] |  | 2
15 | CN(C)[C@H]1CCc2nc(NC(=O)c3cccc([C@H]4CCCN4C(=O)c4cn5cc(C(N)=O)ccc5n4)c3)sc2C1 [Compound 104] |  | 1.7
16 | CN(C)[C@H]1CCc2nc(NC(=O)c3cccc([C@H]4CCCN4C(=O)c4cccc(-c5cn[nH]c5)c4)c3)sc2C1 [Compound 106] |  | 1.9
17 | O=C(Nc1nc2c(s1)C[C@@H](N1CCOCC1)CC2)c1cccc([C@H]2CCCN2C(=O)c2cc(-c3ccncc3)[nH]n2)c1 [Compound 138] |  | 4.2
